Values after ≈ are worked out from the molar mass of the structure shown. Where two headings read alike, the source gives them in different places.
Key:
[1] = test system: SEPTTR field isolate R2004-6 (G143A mutation in cytochrome b)
[2] = test system: SEPTTR field isolate LARS 15; assay: in vitro fungitoxicity, microtiter plate assay, strobilurin-sensitive isolate; details: for LARS 15 EC50: isolate LARS 15, sensitive to strobilurins; for activity against the LARS 15 strain (in words): isolate LARS 15
[3] = test system: QoI-resistant SEPTTR isolates; assay: in-planta control of SEPTTR on wheat cultivar Riband, QoI-resistant isolates; assay type: in vivo, Septoria tritici; details: visual inspection 21 days after inoculation
[4] = test system: QoI-sensitive SEPTTR isolates ('WT'); assay: in vitro fungitoxicity, panel of SEPTTR isolates, QoI-sensitive; details: for mean EC50, QoI-Sensitive (n = 17): mean of 17 QoI-sensitive isolates
Source text: (§1) A panel of 31 SEPTTR isolates was used in in vitro fungitoxicity experiments. Most of the used isolates were isolated from wheat in the UK from 2001 to 2005.

[5] = test system: QoI-resistant SEPTTR isolates ('G143A'); assay: in vitro fungitoxicity, panel of SEPTTR isolates, QoI-resistant; details: for mean EC50, QoI-resistant (n = 14): mean of 14 QoI-resistant isolates; for fold less active against QoI-resistant than QoI-sensitive isolates: resistant vs sensitive
Source text: as §1

[6] = test system: SEPTTR field isolate R2004-6 (G143A mutation in cytochrome b); assay: in vitro fungitoxicity, microtiter plate assay, strobilurin-resistant isolate; details: for activity against the QoI-resistant strain R2004-6 (in words): isolate R2004-6; for R2004-6 EC50: isolate R2004-6, G143A, resistant to strobilurins

| Compound | R2004-6 EC50 [1] | LARS 15 EC50 [2] | R2004-6 EC50 [6] | further results |
| --- | --- | --- | --- | --- |
| CO/N=C(/C(=O)OC)c1ccccc1COc1ccccc1C [Kresoxim-methyl, kresoxim-methyl] | >5 ppm | <0.005 ppm | – | – |
| COc1ccnc(C(=O)N[C@H]2COC(=O)[C@H](Cc3ccccc3)[C@@H](OC(=O)C(C)C)[C@H](C)OC2=O)c1OCOC(=O)C(C)C [Compound 1] | – | 0.169 ppm | 0.122 ppm | breaking rate for control of SEPTTR infection ([3]; isolate G3-03, QoI R): 0.9 ppm; breaking rate for control of SEPTTR infection ([3]; isolate TwistB-02, QoI R): 0.3 ppm; mean EC50, QoI-Sensitive (n = 17) [4]: 0.035 µg/mL; mean EC50, QoI-resistant (n = 14) [5]: 0.021 µg/mL; fold more active against QoI-resistant than QoI-sensitive isolates ([5]; ratio of mean EC50 values, sensitive vs resistant): 1.7 fold; activity against the QoI-resistant strain R2004-6 (in words) [6]: highly active; activity against the LARS 15 strain (in words) [2]: highly active |
| CO/C=C(/C(=O)OC)c1ccccc1Oc1cc(Oc2ccccc2C#N)ncn1 [Azoxystrobin, azoxystrobin] | – | 0.011 ppm | 3.00 ppm | mean EC50, QoI-Sensitive (n = 17) [4]: 0.057 µg/mL; mean EC50, QoI-resistant (n = 14) [5]: 9.077 µg/mL; fold less active against QoI-resistant than QoI-sensitive isolates ([5]; ratio of mean EC50 values): 160 fold |
| UK2A [UK-2A] | – | 0.037 ppm | 0.029 ppm | activity against the QoI-resistant strain R2004-6 (in words) [6]: highly active; activity against the LARS 15 strain (in words) [2]: highly active |
| antimycin A | – | 0.021 ppm | 0.011 ppm | – |
| Fc1ccc([C@]2(Cn3cncn3)O[C@H]2c2ccccc2Cl)cc1 (racemic) [Epoxiconazole, epoxiconazole] | – | – | – | EC50 ([4]; Zymoseptoria tritici, read-out: mean EC50, QoI-Sensitive (n = 17)): 0.351 µg/mL (≈ 1.06 µM); EC50 ([5]; Zymoseptoria tritici, read-out: mean EC50, QoI-resistant (n = 14)): 0.589 µg/mL (≈ 1.79 µM); fold less active against QoI-resistant than QoI-sensitive isolates ([5]; ratio of mean EC50 values): 1.7 fold |
| CCC1(C)CC(NC(=O)c2cccc(NC=O)c2O)CC(C)(C)C1 (stereo not shown) [Compound 2] | <0.0005 ppm | 0.0006 ppm | – | – |
| C[C@@]1(c2ccc(Oc3ccccc3)cc2)OC(=O)N(Nc2ccccc2)C1=O (racemic) [Famoxadone, famoxadone] | >5 ppm | 0.136 ppm | – | – |
| COc1ccnc(C(=O)NC2CCCC(Sc3ccc(C(C)(C)C)cc3)C2)c1O (stereo not shown) [Compound 3] | 0.059 ppm | 0.049 ppm | – | – |
